Regarding `N#Cc1ccc(-c2c(Cl)nc3ncnn3c2NC2CCCC2)cc1` [I-3], the melting point (usually the temperature, or range, at which the solid turns liquid) amounted to 207 °C.
The figure for `CSc1cc(F)c(-c2c(Cl)nc3ncnn3c2NCC(F)(F)F)cc1F` [I-8] is 161 °C.

The values are drawn from patent US7148227B2, “Fungicidal triazolopyrimidines, methods for producing the same, use thereof for combating harmful fungi and agents containing said substances” (BASF Aktiengesellschaft, priority 2002, dated 2006).
